Tests used:
[1] = biological target: T1, p53 Y220C mutant protein (amino acid residues 94-293) (Homo sapiens, UniProt P04637, Y220C); test: Surface Plasmon Resonance (SPR) assay, p53 Y220C Kd_kinetic; details: multi-cycle kinetics, 16 or 20 °C, pH 7.5, 1:1 binding model
T1 construct: p53 Y220C mutant protein (amino acid residues 94-293)
Procedure: SPR experiments are performed on a Biacore 8K instrument. […] Compounds are 2-fold, 7-point serial diluted; the top concentration varies depending on the potency. Compound binding affinities are measured in the multi-cycle kinetics mode, at 30 μL/min flow rate with 60 seconds association time and 120 seconds dissociation time. The running buffer contains 50 mM Tris, pH 7.5, 100 mM NaCl, 1 mM DTT, 0.01% Brij35, 0.05% Tween-20 and 1% DMSO. The assay temperature is maintained at 16 or 20 °C and data are fit into the 1:1 binding model using the Biacore Insight Evaluation software.

[2] = biological target: p53 Y220C (Homo sapiens, UniProt P04637, Y220C); test: Luciferase Reporter Assay, p53 Y220C (NCIH1299 cells with inducible p53 Y220C and p53 response element-luciferase); type: cell-based; details: 6 hour compound treatment, read-out: Luc P53 Y220C AC50
Procedure: Luciferase reporter (Luc) driven by p53 response element (LTV-p53-Luc (SKU #: LTLR007); G&P Biosciences) and inducible p53 Y220C construct (Tet-One inducible expression system; Takara) were stably expressed in NCIH1299 cells by lentiviral transduction. The cells were then used for p53 reporter assay. 5,000 cells were seeded in each well of 384 plate and cultured in 0.5 ug/mL doxycycline (D3072; Sigma) containing medium for 24 hours before compound treatment. After 6 hour of compound treatment, equal volume of One-Glo reagent (E6110; Promega) was added to each well and the plate was incubated for 5 minutes with shaking at room temperature. The luciferase activity was immediately measured with PheraStar microplate reader. Luciferase activity was stimulated by 10 uM of a tool compound as positive control and AC50 was calculated.

[3] = system: NUGC3 cells (p53 Y220C); test: Cell Proliferation Assay (CellTiter-Glo), NUGC3 p53 Y220C; type: cell-based; details: Homo sapiens, NUGC-3, 120 h, 5 days, read-out: CTG NUGC3 P53 Y220C IC50
Procedure: (§1) Inducible p53 Y220C and R273H constructs (Tet-One inducible expression system; Takara) were stably expressed in NCIH1299 cells by lentiviral transduction. NUGC3, A549, BxPC3, T3M4, HuH7, HCC2935, MFE296, NCIH1299, NCIH1299-inducible p53 Y220C, and NCIH1299-inducible p53 R273H cell lines were used for cell proliferation assay. 250-500 cells were seeded in each well of 384 plate and then compounds were dispensed into each well using Echo or Tecan. After 5 days of incubation, equal volume of CellTiter-Glo reagent (G7570; Promega) was added into each well and the plate was incubated at room temperature for 10 minutes with shaking. The luminescent signal was measured by PheraStar microplate reader and IC50 was calculated.

[4] = system: NCIH1299-inducible p53 Y220C cells; test: Cell Proliferation Assay (CellTiter-Glo), NCIH1299-inducible p53 Y220C; type: cell-based; details: Homo sapiens, NCI-H1299, 120 h, 5 days, read-out: CTG H1299 P53 Y220C IC50
Procedure: as §1

T1 sequence (P04637 94-293, stated change not applied): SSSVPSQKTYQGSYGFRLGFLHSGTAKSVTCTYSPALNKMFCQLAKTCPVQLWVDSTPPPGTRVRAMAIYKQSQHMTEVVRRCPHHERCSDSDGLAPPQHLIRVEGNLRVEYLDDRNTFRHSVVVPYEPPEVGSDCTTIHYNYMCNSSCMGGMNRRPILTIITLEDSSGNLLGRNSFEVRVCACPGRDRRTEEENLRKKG

Row | Compound | Kd [1] | AC50 [2] | IC50 [3] | IC50 [4]
1 | CN1CC[C@@H](Nc2cccn3c(SC(F)(F)F)c(-c4noc(CNC(=O)c5cnc(N(C)C)o5)n4)cc23)[C@@H](F)C1 [Example 12, 2-(dimethylamino)-N-{[3-(8-{[(3S,4R)-3-fluoro-1-methylpiperidin-4-yl]amino}-3-[(trifluoromethyl)sulfanyl]indolizin-2-yl)-1,2,4-oxadiazol-5-yl]methyl}-1,3-oxazole-5-carboxamide] | < 10 nM | < 750 nM | < 750 nM | < 750 nM
2 | CN1CC[C@@H](Nc2cccn3c(SC(F)(F)F)c(-c4noc(CNC(=O)c5ccc6c(c5)CC(=O)N6)n4)cc23)[C@@H](F)C1 [Example 18, N-{[3-(8-{[(3S,4R)-3-fluoro-1-methylpiperidin-4-yl]amino}-3-[(trifluoromethyl)sulfanyl]indolizin-2-yl)-1,2,4-oxadiazol-5-yl]methyl}-2-oxo-1,3-dihydroindole-5-carboxamide] | < 10 nM | 750 to 1500 nM | < 750 nM | 750 to 1500 nM
3 | CN1CC[C@@H](Nc2cccn3c(SC(F)(F)F)c(-c4nsc(CNC(=O)c5ccn(C(C)(C)C)c5)n4)cc23)[C@@H](F)C1 [Example 6, 1-tert-butyl-N-{[3-(8-{[(3S,4R)-3-fluoro-1-methylpiperidin-4-yl]amino}-3-[(trifluoromethyl)sulfanyl]indolizin-2-yl)-1,2,4-thiadiazol-5-yl]methyl}pyrrole-3-carboxamide] | ≥ 1000 nM | ≥ 3000 nM | ≥ 3000 nM | ≥ 3000 nM
4 | CNC(=O)c1ccc(C(=O)NCc2nc(-c3cc4c(N[C@@H]5CCN(C)C[C@@H]5F)cccn4c3SC(F)(F)F)no2)cc1 [Example 57, N1—{[3-(8-{[(3S,4R)-3-fluoro-1-methylpiperidin-4-yl]amino}-3-[(trifluoromethyl)sulfanyl]indolizin-2-yl)-1,2,4-oxadiazol-5-yl]methyl}-N4-methylbenzene-1,4-dicarboxamide] | < 10 nM | < 750 nM | < 750 nM | < 750 nM
5 | CC(C)C(=O)NCc1nc(-c2cc3c(N[C@@H]4CCN(C)C[C@@H]4F)cccn3c2SC(F)(F)F)no1 [Example 60, N-{[3-(8-{[(3S,4R)-3-fluoro-1-methylpiperidin-4-yl]amino}-3-[(trifluoromethyl)sulfanyl]indolizin-2-yl)-1,2,4-oxadiazol-5-yl]methyl}-2-methylpropanamide] | 10 to 100 nM | 1500 to 3000 nM | 1500 to 3000 nM | 1500 to 3000 nM
6 | CN1CC[C@@H](Nc2cccn3c(SC(F)(F)F)c(-c4noc(CNC(=O)c5ccc6[nH]cc(C#N)c6c5)n4)cc23)[C@@H](F)C1 [Example 19, 3-cyano-N-{[3-(8-{[(3S,4R)-3-fluoro-1-methylpiperidin-4-yl]amino}-3-[(trifluoromethyl)sulfanyl]indolizin-2-yl)-1,2,4-oxadiazol-5-yl]methyl}-1H-indole-5-carboxamide] | 10 to 100 nM | 750 to 1500 nM | < 750 nM | < 750 nM
7 | COc1csc(C(=O)NCc2nc(-c3cc4c(N[C@@H]5CCN(C)C[C@@H]5F)cccn4c3SC(F)(F)F)no2)c1 [Example 37, N-{[3-(8-{[(3S,4R)-3-fluoro-1-methylpiperidin-4-yl]amino}-3-[(trifluoromethyl)sulfanyl]indolizin-2-yl)-1,2,4-oxadiazol-5-yl]methyl}-4-methoxythiophene-2-carboxamide] | < 10 nM | < 750 nM | < 750 nM | < 750 nM
8 | CNC(=O)c1ccc(NCc2nc(-c3cc4c(N[C@@H]5CCN(C)C[C@@H]5F)cccn4c3SC(F)(F)F)no2)nc1 [Example 54, 6-({[3-(8-{[(3S,4R)-3-fluoro-1-methylpiperidin-4-yl]amino}-3-[(trifluoromethyl)sulfanyl]indolizin-2-yl)-1,2,4-oxadiazol-5-yl]methyl}amino)-N-methylpyridine-3-carboxamide] | < 10 nM | < 750 nM | < 750 nM | < 750 nM
9 | CN1CC[C@@H](Nc2cccn3c(SC(F)(F)F)c(-c4noc(CNC(=O)c5csc(N6CCOCC6)n5)n4)cc23)[C@@H](F)C1 [Example 20, N-{[3-(8-{[(3S,4R)-3-fluoro-1-methylpiperidin-4-yl]amino}-3-[(trifluoromethyl)sulfanyl]indolizin-2-yl)-1,2,4-oxadiazol-5-yl]methyl}-2-(morpholin-4-yl)-1,3-thiazole-4-carboxamide] | < 10 nM | < 750 nM | < 750 nM | < 750 nM
10 | C[C@H](NC(=O)C1CC1)c1nc(-c2cc3c(N[C@@H]4CCN(C)C[C@@H]4F)cccn3c2SC(F)(F)F)no1 [Example 52, N-[(1S)-1-[3-(8-{[(3S,4R)-3-fluoro-1-methylpiperidin-4-yl]amino}-3-[(trifluoromethyl)sulfanyl]indolizin-2-yl)-1,2,4-oxadiazol-5-yl]ethyl]cyclopropanecarboxamide] | 10 to 100 nM | ≥ 3000 nM | ≥ 3000 nM | ≥ 3000 nM
11 | CN1CC[C@@H](Nc2cccn3c(SC(F)(F)F)c(-c4noc(CNC(=O)C5(C(F)(F)F)CC5)n4)cc23)[C@@H](F)C1 [Example 47, N-{[3-(8-{[(3S,4R)-3-fluoro-1-methylpiperidin-4-yl]amino}-3-[(trifluoromethyl)sulfanyl]indolizin-2-yl)-1,2,4-oxadiazol-5-yl]methyl}-1-(trifluoromethyl)cyclopropane-1-carboxamide] | 10 to 100 nM | ≥ 3000 nM | ≥ 3000 nM | ≥ 3000 nM
12 | CN1CC[C@@H](Nc2cccn3c(SC(F)(F)F)c(-c4nsc(CNC(=O)C5CC5)n4)cc23)[C@@H](F)C1 [Example 4, N-{[3-(8-{[(3S,4R)-3-fluoro-1-methylpiperidin-4-yl]amino}-3-[(trifluoromethyl)sulfanyl]indolizin-2-yl)-1,2,4-thiadiazol-5-yl]methyl}cyclopropanecarboxamide] | 10 to 100 nM | ≥ 3000 nM | ≥ 3000 nM | ≥ 3000 nM
13 | CC(=O)NCc1nc(-c2cc3c(N[C@@H]4CCN(C)C[C@@H]4F)cccn3c2SC(F)(F)F)no1 [Example 59, N-{[3-(8-{[(3S,4R)-3-fluoro-1-methylpiperidin-4-yl]amino}-3-[(trifluoromethyl)sulfanyl]indolizin-2-yl)-1,2,4-oxadiazol-5-yl]methyl}acetamide] | < 10 nM | 750 to 1500 nM | 750 to 1500 nM | < 750 nM
14 | CN1CC[C@@H](Nc2cccn3c(SC(F)(F)F)c(-c4nsc(CNC(=O)c5cnn(C(C)(C)C)c5)n4)cc23)[C@@H](F)C1 [Example 5, 1-tert-butyl-N-{[3-(8-{[(3S,4R)-3-fluoro-1-methylpiperidin-4-yl]amino}-3-[(trifluoromethyl)sulfanyl]indolizin-2-yl)-1,2,4-thiadiazol-5-yl]methyl}pyrazole-4-carboxamide] | 100 to 1000 nM | ≥ 3000 nM | ≥ 3000 nM | ≥ 3000 nM
15 | CN1CC[C@@H](Nc2cccn3c(SC(F)(F)F)c(-c4noc(CNC(=O)c5ccc(-c6ccn[nH]6)s5)n4)cc23)[C@@H](F)C1 [Example 56, N-{[3-(8-{[(3S,4R)-3-fluoro-1-methylpiperidin-4-yl]amino}-3-[(trifluoromethyl)sulfanyl]indolizin-2-yl)-1,2,4-oxadiazol-5-yl]methyl}-5-(2H-pyrazol-3-yl)thiophene-2-carboxamide] | 10 to 100 nM | 750 to 1500 nM | < 750 nM | < 750 nM
16 | CN1CC[C@@H](Nc2cccn3c(SC(F)(F)F)c(-c4noc(CNC(=O)C5(F)CCOCC5)n4)cc23)[C@@H](F)C1 [Example 36, 4-fluoro-N-{[3-(8-{[(3S,4R)-3-fluoro-1-methylpiperidin-4-yl]amino}-3-[(trifluoromethyl)sulfanyl]indolizin-2-yl)-1,2,4-oxadiazol-5-yl]methyl}oxane-4-carboxamide] | 10 to 100 nM | 1500 to 3000 nM | 1500 to 3000 nM | 1500 to 3000 nM

Source: US20260347353A1, “INDOLIZINE DERIVATIVES FOR TREATING CANCER” (Antares Therapeutics, Inc., priority 2022, published 2026)
